# In patent EP4534147A1, “STING ANTAGONIST COMPOUNDS” (Sulis Therapeutics ApS, priority 2023, dated 2025):
# pIC50: −log10 of the molar value.
# What was measured:
# [1] = biological target: T1, C-terminal domain (CTD) of human STING (Homo sapiens, UniProt Q86WV6); assay: STING binding FP assay I (fluorescence polarization competition binding); parameters: recombinant human STING protein (155-379); conditions: recombinant human STING protein (155-379), 35 nM STING, 4 nM fluorescein-labelled STING ligand (Probe 1), 20 min at room temperature
# Method: (§1) The interaction between molecules and the C-terminal domain (CTD) of human STING was evaluated using a competition binding assay. In this assay, recombinant human STING protein (155-379) and a STING binding fluorescent probe were employed. Upon binding of the probe to STING, the rotation of the fluorescent probe is slowed due to the larger molecular size of the protein-bound complex. As a result, emitted light retains its plane of polarization, leading to an increase in fluorescence polarization. Molecules competing for the probe binding site displace the probe, which leads to rapid randomization of the polarization plane of the emitted light and a subsequent decrease in measured fluorescence polarization signal. Change in polarization was measured, allowing a comparative evaluation of the binding affinities of different compounds to the target protein.
# (§2) The assay was performed in 96-well plates (ThermoFisher, cat.# 237108) containing 100 µl : 10 µL test compound in 10% DMSO and buffer A (150 mM NaCl, 50 mM HEPES pH 7.5, 1 mM DTT) + 90 µL prepared master mix solution of: 4 nM fluorescein-labelled STING ligand (Probe 1; synthesis described above) in buffer A + 0.055% Tween-20 (v/v) and 35 nM STING in buffer A. Post mixing, plates were agitated at 600 rpm and incubated for 20 min at room temperature. Subsequent measurements of the fluorescence polarization signal were made on a BioTek Synergy-H1 plate reader, using a polarization filter; excitation: 485/20 nm, emission: 528/20 nm) with a gain-setting of 75. IC50 values were determined using a standard non-linear regression four-parameter curve fit in Graphpad Prism.
# Target sequence in this assay (Q86WV6 155-379): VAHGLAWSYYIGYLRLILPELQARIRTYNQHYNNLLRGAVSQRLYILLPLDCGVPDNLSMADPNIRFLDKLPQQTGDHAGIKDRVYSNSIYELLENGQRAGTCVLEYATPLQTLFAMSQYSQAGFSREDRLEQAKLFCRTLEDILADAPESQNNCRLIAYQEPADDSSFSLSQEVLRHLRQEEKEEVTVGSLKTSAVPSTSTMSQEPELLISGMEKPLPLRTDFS
# STING = biological target: T2, STING (Homo sapiens, UniProt Q86WV6); assay: Human FB STING antagonist assay (IFN-a/b release); assay type: cell-based; conditions: Human skin fibroblasts, 2h pre-treatment, 300 nM GSK STING agonist (CAS number: 2138299-34-8) for 20 h, release of IFN-a/b by HEK-Blue IFN-α/β bioassay
# T2 construct: endogenous in cells; host or cells: human skin fibroblasts
# T2 sequence (Q86WV6 whole entry): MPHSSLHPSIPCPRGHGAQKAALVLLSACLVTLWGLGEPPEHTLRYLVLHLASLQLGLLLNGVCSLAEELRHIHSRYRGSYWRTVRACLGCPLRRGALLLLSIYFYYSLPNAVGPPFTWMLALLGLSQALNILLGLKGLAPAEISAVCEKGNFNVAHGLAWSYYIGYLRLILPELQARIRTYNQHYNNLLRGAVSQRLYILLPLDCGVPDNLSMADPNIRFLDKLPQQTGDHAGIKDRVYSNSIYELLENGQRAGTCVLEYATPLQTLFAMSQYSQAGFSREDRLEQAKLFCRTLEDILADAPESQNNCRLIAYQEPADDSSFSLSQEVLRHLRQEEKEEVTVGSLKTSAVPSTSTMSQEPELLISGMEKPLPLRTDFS
# Method: STING antagonist activity can be determined by a human fibroblast antagonist assay. For this, human skin fibroblasts are pre-treated for 2h with a serial dilution of the compound, and are then stimulated for 20 hours with 300 nM STING agonist (e.g. from GSK, CAS number: 2138299-34-8). Supernatants are then harvested and assessed for IFN-a/b release, which indicates STING activation. IFN-a/b concentration in the supernatant is determined, e.g. using an IFN-α/β bioassay. IC50 values are calculated using a non-linear regression fitting, variable slope (4 parameters).
# Human skin fibroblasts were pre-treated for 2h with a serial dilution of test compound followed by stimulation with mock or 300 nM GSK STING agonist (CAS number: 2138299-34-8). Supernatants were harvested after 20 h of STING agonist stimulation. Release of IFN-a/b was determined using HEK-Blue IFN-α/β bioassay (Invivogen). Cellular viability was assessed using Alamar Blue HS assay. IC50 values were estimated using a non-linear regression fitting, variable slope (4 parameters) in GraphPad Prism 9.3.1.
# [2] = biological target: T1, C-terminal domain (CTD) of human STING; assay: STING binding FP assay II (as FP assay I, lower STING concentration); parameters: recombinant human STING protein (155-379); conditions: 7 nM STING in buffer A, 4 nM fluorescein-labelled STING ligand (Probe 1)
# Method: as §1, §2
# Target sequence in this assay (Q86WV6 155-379): as the sequence (Q86WV6 155-379) above
# The procedure for STING binding FP assay II is the same as described for STING binding FP assay I, except for a lower STING concentration. In STING binding FP assay II, a concentration of 7 nM STING in buffer A was used.
# [3] = biological target: T1, C-terminal domain (CTD) of human STING; assay: STING binding TR-FRET assay (CisBio Human STING WT Binding Kit); parameters: purchased CisBio 64BDSTGPEG; conditions: recombinant human STING with His-tag, D2-labeled active site probe, 60 min at room temperature
# Method: STING binding can be determined by a time-resolved FRET assay. For instance, a STING protein having a His-tag can be used. A D2-labeled active site probe can be used to accept 620 nm emission from Anti-HIS-Tb-STING. Increased fluorescence is measured at 665 nm. Molecules that compete for the probe binding site will result in a lower 665 nm signal. The assay can be performed in low-volume white 96-well plates containing 5 µL compounds in an appropriate diluent buffer. Following 60 minutes incubation at room temperature in the dark, fluorescence emission at 665 nm is measured following 330 nm xenon flash excitation. pIC50 values can be determined using a standard four parameter curve fit.
# The affinity of molecules to the C-terminal domain (CTD) of human STING was determined using a commercial Human STING WT Binding Kit (CisBio, cat.# 64BDSTGPEG). In this time-resolved FRET assay, a recombinant human STING protein construct with a His-tag was employed. When bound to STING, a D2-labeled active site probe accepts the 620 nm emission from Anti-HIS-Tb-STING and an increase in fluorescence is measured at 665 nm. Molecules that compete for the probe binding site will result in a low 665 nm signal. The assay was run in CisBio low-volume white 96-well plates (catalog# 66PL96005) containing 5 µL compounds in Diluent Buffer (supplied with the CisBio kit). A solution of 1xSTING, 1x Anti-HIS-Tb and 1X D2-probe in TB detection buffer (kit supplied) was added to the plate. Plates were centrifuged for 2 min at 500 rpm, incubated for 60 min at room temperature in the dark, and then fluorescence emission at 665 nm following 330 nm xenon flash excitation on an BioTek synergy H1 multimode reader (Agilent) was measured. The plC50 values were determined using a standard four parameter curve fit in GraphPad Prism.
# Target sequence in this assay (Q86WV6 135-379 limits assumed): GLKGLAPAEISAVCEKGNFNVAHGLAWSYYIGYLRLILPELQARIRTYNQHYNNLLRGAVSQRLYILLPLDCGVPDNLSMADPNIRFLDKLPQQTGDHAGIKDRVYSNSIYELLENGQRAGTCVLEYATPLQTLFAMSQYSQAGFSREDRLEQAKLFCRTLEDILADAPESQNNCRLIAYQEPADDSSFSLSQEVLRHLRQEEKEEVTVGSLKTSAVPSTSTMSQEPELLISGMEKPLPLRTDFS
SMILES,pIC50 [1],pIC50 (STING),pIC50 [2],pIC50 [3]
"CCOC(=O)COC(CCn1c(=NC(=O)c2cc(C)nn2CC)n(C)c2cc(C(N)=O)ccc21)CCn1c(=NC(=O)c2cc(C)nn2CC)n(C)c2cc(C(N)=O)ccc21 (stereo not drawn) [Example 2, Ethyl (3-{5-carbamoyl-2-[(1-ethyl-3-methyl-5-pyrazolyl)carbonylimino]-3-methyl-2,3-dihydro-1H-1,3-benzimidazol-1-yl}-1-(2-{5-carbamoyl-2-[(1-ethyl-3-methyl-5-pyrazolyl)carbonylimino]-3-methyl-2,3-dihydro-1H-1,3-benzimidazol-1-yl}ethyl)propoxy)acetate]",> 7.52,5.60,–,–
"CCn1nc(C)cc1C(=O)N=c1n(C)c2cc(C(N)=O)ccc2n1CCC(CCn1c(=NC(=O)c2cc(C)nn2CC)n(C)c2cc(C(N)=O)ccc21)OCC(=O)NC1CCN(C)CC1 (stereo not drawn) [Example 10, 1-{3-[(N-1-Methyl-4-piperidylcarbamoyl)methoxy]-5-{5-carbamoyl-2-[(1-ethyl-3-methyl-5-pyrazolyl)carbonylimino]-3-methyl-2,3-dihydro-1H-1,3-benzimidazol-1-yl}pentyl}-2-[(1-ethyl-3-methyl-5-pyrazolyl)carbonylimino]-3-methyl-2,3-dihydro-1H-1,3-benzimidazole-5-carboxamide]",–,–,8.46,9.06
"CCn1nc(C)cc1C(=O)N=c1n(C)c2cc(C(N)=O)ccc2n1CCC(CCn1c(=NC(=O)c2cc(C)nn2CC)n(C)c2cc(C(N)=O)ccc21)OCC(=O)N1CCC[C@H]1c1cccc(OC)c1 (stereo partly drawn) [Example 11, 1-(3-{2-[(S)-2-(3-Methoxyphenyl)-1-pyrrolidinyl]-2-oxoethoxy}-5-{5-carbamoyl-2-[(1-ethyl-3-methyl-5-pyrazolyl)carbonylimino]-3-methyl-2,3-dihydro-1H-1 ,3-benzimidazol-1-yl}pentyl)-2-[(1-ethyl-3-methyl-5-pyrazolyl)carbonylimino]-3-methyl-2,3-dihydro-1H-1,3-benzimidazole-5-carboxamide]",–,5.47,8.70,9.06
"CCn1nc(C)cc1C(=O)N=c1n(C)c2cc(C(N)=O)ccc2n1CCC(CCn1c(=NC(=O)c2cc(C)nn2CC)n(C)c2cc(C(N)=O)ccc21)OCC(=O)N(Cc1ccc(OC)cc1)C1CC1 (stereo not drawn) [Example 14, 1-[3-({N-Cyclopropyl[(p-methoxyphenyl)methyl]carbamoyl}methoxy)-5-{5-carbamoyl-2-[(1-ethyl-3-methyl-5-pyrazolyl)carbonylimino]-3-methyl-2,3-dihydro-1H-1,3-benzimidazol-1-yl}pentyl]-2-[(1-ethyl-3-methyl-5-pyrazolyl)carbonylimino]-3-methyl-2,3-dihydro-1H-1,3-benzimidazole-5-carboxamide]",–,–,–,9.18
"CCn1nc(C)cc1C(=O)N=c1n(C)c2cc(C(N)=O)ccc2n1CCC(CCn1c(=NC(=O)c2cc(C)nn2CC)n(C)c2cc(C(N)=O)ccc21)OCC(=O)N1[C@H](C)COC[C@@H]1C (stereo partly drawn) [Example 17, 1-(3-{2-[(3R,5S)-3,5-Dimethyl-4-morpholinyl]-2-oxoethoxy}-5-{5-carbamoyl-2-[(1-ethyl-3-methyl-5-pyrazolyl)carbonylimino]-3-methyl-2,3-dihydro-1H-1,3-benzimidazol-1-yl}pentyl)-2-[(1-ethyl-3-methyl-5-pyrazolyl)carbonylimino]-3-methyl-2,3-dihydro-1H-1,3-benzimidazole-5-carboxamide]",–,–,–,9.27
"CCn1nc(C)cc1C(=O)N=c1n(C)c2cc(C(N)=O)ccc2n1CCC(CCn1c(=NC(=O)c2cc(C)nn2CC)n(C)c2cc(C(N)=O)ccc21)OCC(=O)N(Cc1ccc(OC)cc1)Cc1ccccn1 (stereo not drawn) [Example 19, 1-(5-{5-Carbamoyl-2-[(1-ethyl-3-methyl-5-pyrazolyl)carbonylimino]-3-methyl-2,3-dihydro-1H-1,3-benzimidazol-1-yl}-3-({[(p-methoxyphenyl)methyl][(2-pyridyl)methyl]carbamoyl}methoxy)pentyl)-2-[(1-ethyl-3-methyl-5-pyrazolyl)carbonylimino]-3-methyl-2,3-dihydro-1H-1,3-benzimidazole-5-carboxamide]",–,–,–,8.95
"CCn1nc(C)cc1C(=O)N=c1n(C)c2cc(C(N)=O)ccc2n1CCC(CCn1c(=NC(=O)c2cc(C)nn2CC)n(C)c2cc(C(N)=O)ccc21)OCC(=O)N1CCC[C@@H]1c1ccc(OC)cc1 (stereo partly drawn) [Example 20, 1-(3-{2-[(R)-2-(p-Methoxyphenyl)-1-pyrrolidinyl]-2-oxoethoxy}-5-{5-carbamoyl-2-[(1-ethyl-3-methyl-5-pyrazolyl)carbonylimino]-3-methyl-2,3-dihydro-1H-1,3-benzimidazol-1-yl}pentyl)-2-[(1-ethyl-3-methyl-5-pyrazolyl)carbonylimino]-3-methyl-2,3-dihydro-1H-1,3-benzimidazole-5-carboxamide]",–,–,–,9.02
"CCNC(=O)COC(CCn1c(=NC(=O)c2cc(C)nn2CC)n(C)c2cc(C(N)=O)ccc21)CCn1c(=NC(=O)c2cc(C)nn2CC)n(C)c2cc(C(N)=O)ccc21 (stereo not drawn) [Example 29, 1-{3-[(N-Ethylcarbamoyl)methoxy]-5-{5-carbamoyl-2-[(1-ethyl-3-methyl-5-pyrazolyl)carbonylimino]-3-methyl-2,3-dihydro-1H-1,3-benzimidazol-1-yl}pentyl}-2-[(1-ethyl-3-methyl-5-pyrazolyl)carbonylimino]-3-methyl-2,3-dihydro-1H-1,3-benzimidazole-5-carboxamide]",–,5.28,8.15,–
"CCn1nc(C)cc1C(=O)N=c1n(C)c2cc(C(N)=O)ccc2n1CCC(CCn1c(=NC(=O)c2cc(C)nn2CC)n(C)c2cc(C(N)=O)ccc21)OCC(=O)N1CCOC[C@@H]1c1ccccc1 (stereo partly drawn) [Example 30, 1-(3-{2-[(S)-3-Phenyl-4-morpholinyl]-2-oxoethoxy}-5-{5-carbamoyl-2-[(1-ethyl-3-methyl-5-pyrazolyl)carbonylimino]-3-methyl-2,3-dihydro-1H-1,3-benzimidazol-1-yl}pentyl)-2-[(1-ethyl-3-methyl-5-pyrazolyl)carbonylimino]-3-methyl-2,3-dihydro-1H-1,3-benzimidazole-5-carboxamide]",–,5.44,8.43,–
